Data published in patent publication US10168342B2, “Lipid probes and uses thereof” (THE SCRIPPS RESEARCH INSTITUTE, priority 2015, dated 2019).
Like-named read-outs stand apart in the source and are kept apart here.

Legend:
[1] = molecular target: AEA-DA lipid probe targets in Neuro2a cells (Mus musculus, UniProt P62821)
[2] = molecular target: AEA-DA lipid probe targets in Neuro2a cells (Mus musculus, UniProt Q6PA06)
[3] = molecular target: T1, AEA-DA lipid probe targets in Neuro2a cells (Mus musculus, UniProt Q8BHN3)
T1 sequence (Q8BHN3 33-944): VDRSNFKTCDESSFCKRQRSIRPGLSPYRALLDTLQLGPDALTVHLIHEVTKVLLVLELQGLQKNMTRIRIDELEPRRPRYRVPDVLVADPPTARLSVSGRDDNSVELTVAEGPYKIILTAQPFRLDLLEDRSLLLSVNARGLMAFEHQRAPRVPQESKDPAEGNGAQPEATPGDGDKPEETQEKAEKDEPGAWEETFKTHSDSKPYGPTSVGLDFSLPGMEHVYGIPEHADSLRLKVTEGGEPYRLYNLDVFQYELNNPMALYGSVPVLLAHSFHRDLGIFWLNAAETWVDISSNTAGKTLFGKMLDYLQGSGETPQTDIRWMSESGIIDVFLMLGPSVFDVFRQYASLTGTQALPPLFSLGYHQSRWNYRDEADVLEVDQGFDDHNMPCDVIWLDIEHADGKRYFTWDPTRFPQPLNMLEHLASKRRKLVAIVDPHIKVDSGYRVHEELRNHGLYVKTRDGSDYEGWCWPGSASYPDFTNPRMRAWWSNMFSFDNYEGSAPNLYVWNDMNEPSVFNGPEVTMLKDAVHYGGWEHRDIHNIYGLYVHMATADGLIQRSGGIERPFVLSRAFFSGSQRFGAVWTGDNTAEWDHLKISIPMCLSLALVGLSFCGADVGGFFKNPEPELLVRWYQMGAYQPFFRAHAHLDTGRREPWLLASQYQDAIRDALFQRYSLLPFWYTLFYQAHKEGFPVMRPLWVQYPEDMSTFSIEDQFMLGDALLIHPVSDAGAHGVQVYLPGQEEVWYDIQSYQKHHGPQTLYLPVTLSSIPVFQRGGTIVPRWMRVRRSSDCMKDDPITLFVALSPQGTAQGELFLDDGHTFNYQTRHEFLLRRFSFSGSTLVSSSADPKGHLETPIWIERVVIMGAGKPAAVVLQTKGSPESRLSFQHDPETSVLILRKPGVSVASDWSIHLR

[4] = molecular target: T2, AEA-DA lipid probe targets in Neuro2a cells (Mus musculus, UniProt Q91ZV0)
T2 sequence (Q91ZV0 23-1396): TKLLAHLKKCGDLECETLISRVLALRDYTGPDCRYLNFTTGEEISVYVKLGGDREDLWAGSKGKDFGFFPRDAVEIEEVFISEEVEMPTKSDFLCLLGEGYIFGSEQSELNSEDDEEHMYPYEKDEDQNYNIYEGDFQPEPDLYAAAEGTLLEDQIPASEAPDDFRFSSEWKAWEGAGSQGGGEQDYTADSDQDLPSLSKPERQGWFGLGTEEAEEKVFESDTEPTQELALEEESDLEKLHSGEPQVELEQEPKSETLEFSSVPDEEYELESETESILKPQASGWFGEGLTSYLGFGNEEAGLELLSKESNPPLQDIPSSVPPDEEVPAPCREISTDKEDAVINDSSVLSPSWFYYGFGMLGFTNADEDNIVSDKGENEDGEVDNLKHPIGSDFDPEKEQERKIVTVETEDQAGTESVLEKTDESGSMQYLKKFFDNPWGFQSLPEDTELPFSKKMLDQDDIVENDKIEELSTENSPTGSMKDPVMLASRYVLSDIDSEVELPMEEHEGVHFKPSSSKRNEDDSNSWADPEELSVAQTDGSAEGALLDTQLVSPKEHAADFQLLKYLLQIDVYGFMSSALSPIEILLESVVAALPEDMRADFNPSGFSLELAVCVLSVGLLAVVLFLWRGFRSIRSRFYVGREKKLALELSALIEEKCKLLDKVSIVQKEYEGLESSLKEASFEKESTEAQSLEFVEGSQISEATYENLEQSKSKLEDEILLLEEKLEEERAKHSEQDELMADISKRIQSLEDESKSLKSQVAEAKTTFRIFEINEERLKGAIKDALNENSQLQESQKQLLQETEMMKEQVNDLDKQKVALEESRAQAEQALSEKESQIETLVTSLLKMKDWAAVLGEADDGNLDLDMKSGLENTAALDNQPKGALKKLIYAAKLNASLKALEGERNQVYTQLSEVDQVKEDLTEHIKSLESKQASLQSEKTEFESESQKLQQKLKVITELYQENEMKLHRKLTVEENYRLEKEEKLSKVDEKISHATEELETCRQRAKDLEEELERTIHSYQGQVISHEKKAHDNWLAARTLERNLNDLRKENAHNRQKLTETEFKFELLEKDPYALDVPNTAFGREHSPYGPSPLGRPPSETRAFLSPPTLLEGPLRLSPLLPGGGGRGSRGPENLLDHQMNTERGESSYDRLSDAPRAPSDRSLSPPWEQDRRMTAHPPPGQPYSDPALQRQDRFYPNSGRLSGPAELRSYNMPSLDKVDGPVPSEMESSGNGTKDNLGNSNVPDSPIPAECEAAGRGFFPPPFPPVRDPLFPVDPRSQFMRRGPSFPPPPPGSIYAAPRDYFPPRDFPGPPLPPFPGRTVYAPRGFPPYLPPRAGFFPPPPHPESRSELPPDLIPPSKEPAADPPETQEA

[5] = molecular target: T3, AEA-DA lipid probe targets in Neuro2a cells (Mus musculus, UniProt Q9CQM2)
T3 sequence (Q9CQM2 1-212): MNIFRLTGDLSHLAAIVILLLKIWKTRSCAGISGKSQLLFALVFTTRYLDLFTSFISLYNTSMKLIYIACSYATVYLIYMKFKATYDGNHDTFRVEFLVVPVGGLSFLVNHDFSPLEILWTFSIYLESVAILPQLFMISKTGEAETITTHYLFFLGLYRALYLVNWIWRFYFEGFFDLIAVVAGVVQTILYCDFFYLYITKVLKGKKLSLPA

[6] = molecular target: AEA-DA lipid probe targets in Neuro2a cells (Mus musculus, UniProt Q9JKW0)
[7] = molecular target: AEA-DA lipid probe targets in Neuro2a cells (Mus musculus, UniProt Q9Z2I0)
Chain of AEA-DA lipid probe targets in Neuro2a cells (Mus musculus, UniProt Q9Z2I0) (Q9Z2I0 115-738): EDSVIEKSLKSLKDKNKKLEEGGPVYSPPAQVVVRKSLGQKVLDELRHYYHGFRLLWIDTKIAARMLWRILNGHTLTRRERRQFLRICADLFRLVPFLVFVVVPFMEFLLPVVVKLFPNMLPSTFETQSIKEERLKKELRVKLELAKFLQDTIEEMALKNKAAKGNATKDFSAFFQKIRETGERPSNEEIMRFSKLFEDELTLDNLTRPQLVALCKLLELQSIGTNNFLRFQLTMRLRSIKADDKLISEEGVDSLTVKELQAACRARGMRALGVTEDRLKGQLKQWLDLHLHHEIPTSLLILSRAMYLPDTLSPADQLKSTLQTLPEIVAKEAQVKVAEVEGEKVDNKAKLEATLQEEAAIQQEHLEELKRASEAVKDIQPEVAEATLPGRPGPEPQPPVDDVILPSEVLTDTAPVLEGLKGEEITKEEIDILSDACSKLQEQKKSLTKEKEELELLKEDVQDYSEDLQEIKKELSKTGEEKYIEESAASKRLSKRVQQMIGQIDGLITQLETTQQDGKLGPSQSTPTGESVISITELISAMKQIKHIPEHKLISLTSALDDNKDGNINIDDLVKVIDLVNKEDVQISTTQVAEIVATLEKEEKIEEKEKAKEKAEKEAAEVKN

Chain of AEA-DA lipid probe targets in Neuro2a cells (Mus musculus, UniProt Q9JKW0) (Q9JKW0 whole entry): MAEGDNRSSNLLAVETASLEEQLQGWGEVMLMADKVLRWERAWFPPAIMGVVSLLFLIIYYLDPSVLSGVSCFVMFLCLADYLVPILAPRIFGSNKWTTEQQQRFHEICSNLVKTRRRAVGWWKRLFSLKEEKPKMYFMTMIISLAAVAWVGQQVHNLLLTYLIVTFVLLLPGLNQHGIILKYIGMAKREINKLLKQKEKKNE
Chain of AEA-DA lipid probe targets in Neuro2a cells (Mus musculus, UniProt Q6PA06) (Q6PA06 whole entry): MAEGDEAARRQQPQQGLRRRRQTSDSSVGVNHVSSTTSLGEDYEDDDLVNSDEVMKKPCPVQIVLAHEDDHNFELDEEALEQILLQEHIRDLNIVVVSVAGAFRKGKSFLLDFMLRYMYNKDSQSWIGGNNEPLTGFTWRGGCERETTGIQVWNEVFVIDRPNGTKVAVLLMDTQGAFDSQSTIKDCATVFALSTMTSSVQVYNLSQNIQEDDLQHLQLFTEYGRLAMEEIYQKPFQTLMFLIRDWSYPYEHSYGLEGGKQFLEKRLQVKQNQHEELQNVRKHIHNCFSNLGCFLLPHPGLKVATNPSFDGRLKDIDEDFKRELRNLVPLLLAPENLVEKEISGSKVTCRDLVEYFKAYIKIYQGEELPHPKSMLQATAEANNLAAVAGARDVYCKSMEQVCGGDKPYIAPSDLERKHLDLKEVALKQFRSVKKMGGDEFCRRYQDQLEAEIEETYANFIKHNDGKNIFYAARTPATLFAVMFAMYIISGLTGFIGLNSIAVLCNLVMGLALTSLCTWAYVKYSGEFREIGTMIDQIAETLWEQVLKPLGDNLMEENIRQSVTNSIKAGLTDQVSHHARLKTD
Chain of AEA-DA lipid probe targets in Neuro2a cells (Mus musculus, UniProt P62821) (P62821 whole entry): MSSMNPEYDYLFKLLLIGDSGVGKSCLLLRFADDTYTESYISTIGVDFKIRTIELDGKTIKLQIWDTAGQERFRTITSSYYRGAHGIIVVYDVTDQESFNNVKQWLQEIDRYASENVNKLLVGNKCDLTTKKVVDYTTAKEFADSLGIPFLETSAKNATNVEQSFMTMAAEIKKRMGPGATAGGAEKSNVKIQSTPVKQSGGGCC

| SMILES | SILAC ratio Rab1A ([1]; competitor 25 μM) | SILAC ratio, Atl2 ([2]; competitor 25 μM) | SILAC ratio Ganab ([3]; competitor 25 μM) | SILAC ratio, Ctage5 ([4]; competitor 25 μM) | SILAC ratio, Kdelr2 ([5]; competitor 25 μM) | SILAC ratio Arl6ip1 ([6]; competitor 25 μM) | SILAC ratio Letm1 ([7]; competitor 25 μM) | also measured |
| --- | --- | --- | --- | --- | --- | --- | --- | --- |
| CCCCC/C=C\C/C=C\C/C=C\C/C=C\CCCC(=O)NCCO [AEA, anandamide, reference compound] | – | – | – | – | – | – | – | SILAC ratio Rab1A ([1]; competitor 200 μM): 1.2; SILAC ratio, Atl2 ([2]; competitor 200 μM): 2.0; SILAC ratio Ganab ([3]; competitor 200 μM): 1.1; SILAC ratio, Ctage5 ([4]; competitor 200 μM): 2.3; SILAC ratio, Kdelr2 ([5]; competitor 200 μM): 1.4; SILAC ratio Arl6ip1 ([6]; competitor 200 μM): 1.5; SILAC ratio Letm1 ([7]; competitor 200 μM): 0.6 |
| O=C(/C=C/c1cccnc1)NCCCCC1CCN(C(=O)c2ccccc2)CC1 [FK-866, reference compound] | 1.1 | 1.1 | 1.1 | 1.1 | 1.2 | 1.0 | 1.5 | – |
| CN1CCN(C(=O)c2c(-c3ccccc3)c3cc([N+](=O)[O-])ccc3n2C)CC1 [KML110, (1-Methyl-5-nitro-3-phenyl-1H-indol-2-yl)(4-methylpiperazin-1-yl)methanone] | 1.3 | 1.3 | 1.3 | 1.4 | 1.3 | 1.4 | 1.1 | – |
| CN1CCN(C(=O)c2[nH]c3ccc([N+](=O)[O-])cc3c2-c2ccccc2)CC1 [MJN228, (4-Methylpiperazin-1-yl)(5-nitro-3-phenyl-1H-indol-2-yl)methanone] | 1.3 | 1.4 | 1.2 | 1.3 | 1.2 | 1.6 | 1.5 | SILAC ratio Rab1A ([1]; competitor 10 μM): 1.1; SILAC ratio Rab1A ([1]; competitor 50 μM): 1.3; SILAC ratio Rab1A ([1]; competitor 100 μM): 1.3; SILAC ratio, Atl2 ([2]; competitor 10 μM): 1.1; SILAC ratio, Atl2 ([2]; competitor 50 μM): 1.6; SILAC ratio Ganab ([3]; competitor 10 μM): 1.2; SILAC ratio Ganab ([3]; competitor 50 μM): 1.5; SILAC ratio Ganab ([3]; competitor 100 μM): 1.6; SILAC ratio, Ctage5 ([4]; competitor 10 μM): 1.1; SILAC ratio, Ctage5 ([4]; competitor 50 μM): 1.5; SILAC ratio, Ctage5 ([4]; competitor 100 μM): 1.7; SILAC ratio, Kdelr2 ([5]; competitor 10 μM): 1.2; SILAC ratio, Kdelr2 ([5]; competitor 50 μM): 1.3; SILAC ratio, Kdelr2 ([5]; competitor 100 μM): 1.8; SILAC ratio Arl6ip1 ([6]; competitor 10 μM): 0.8; SILAC ratio Arl6ip1 ([6]; competitor 100 μM): 1.5; SILAC ratio Letm1 ([7]; competitor 10 μM): 1.3; SILAC ratio Letm1 ([7]; competitor 50 μM): 1.2; SILAC ratio Letm1 ([7]; competitor 100 μM): 1.1 |
| C=CCN(C)CCCCCCOc1ccc(C(=O)c2ccc(Br)cc2)c(F)c1 [Ro 48-8071, reference compound] | 1.0 | 1.2 | 0.9 | 1.0 | 0.9 | 1.1 | 1.3 | – |
